Results reported in patent US20240125768A1, “METHODS FOR MODULATING A SRC-1 CONDENSATE” (ETERN BIOPHARMA (SHANGHAI) CO., LTD., priority 2021, published 2024).
Entries after “also recorded” stand apart in the source; their conditions may differ.

Key:
SRC-1 condensates = biological target: T1, SRC-1 condensates (Homo sapiens, UniProt Q15788); assay: Live cell imaging of SRC-1 condensates; type: cell-based
T1 construct: expressed in transfected cells; host or cells: SF268
Method: Cells were grown on 24-well glass bottom plate (Cellvis, P24-1.5H-N) and images were taken with the Leica TCS SP8 confocal microscopy system using a 100× oil objective (NA=1.4). Cells were imaged on a heated stage(37° C.) and supplemented with warmed (37° C.) humidified air.
For compounds treatment assay, SF268 cells were co-transfected with YAP5SA, TEAD4-mTagBFP2 and mNeoGreen-SRC1. YAP variant YAP5SA which is insensitive to the upstream Hippo pathway, sequestered YAP in nucleus. To circumvent the limitations brought by red fluorescent proteins, TEAD condensates which have been reported to depend on YAP, were used to characterize YAP/TEAD transcriptional condensates. Six hours after transfection, SF268 cells were seeded on 24-well glass bottom plate (Cellvis, P24-1.5H-N) and compounds were added two hours later. Cells were imaged every 30 mins after EVG or other compounds were added.
Cells were grown on 24-well glass bottom plate (Cellvis, P24-1.5H-N) and images were taken with the Leica TCS SP8 confocal microscopy system using a 100× oil objective (NA=1.4). Cells were imaged on a heated stage (37° C.) and supplemented with warmed (37° C.) humidified air. […]
Data was analyzed by images collected from 100 representative fields in each group. The spots quantification was performed based on the number and intensity of the spots through green (mNeoGreen-SRC1) and blue (TEAD4-mTagBFP2) channel. […]

YAP = assay: Western blotting / YAP phostag immunoblotting in SF268 cells; type: cell-based, human; settings: 20 μM
Method: FIG. 7F illustrates SF268 cells were treated with 20 μM elvitegravir (EVG) or […] (PC) for the indicated times and subjected to western blotting analysis.
FIG. 7G illustrates SF268 cells treated with EVG or PC (fedratinib—an inhibitor of the non-receptor tyrosine kinase JAK2 which affects YAP nuclear translocation and phosphorylation) were examined by YAP phostag immunoblotting.

H3K27ac = assay: ChIP-qPCR of histone modifications at YAP target regions; type: cell-based, human; settings: SF268 cells
Method: FIG. 7L illustrates analysis of indicated histone modifications at YAP targets regions #1 from SF268 cells treated with DMSO or EVG by ChIP-qPCR. Error bars show mean±s.e.m. (n=3), *p<0.05, ***p<0.001
Briefly, cells were crosslinked with 1% formaldehyde (Sigma) in culture medium for 10 min at room temperature, and chromatin from lysed nuclei was sheared to 200-1000 bp fragments using a Bioruptor® Pico (Diagenode SA). ˜50 μg of sheared chromatin and ˜2 μg of antibody were mixed. Antibody/antigen complexes were recovered with ProteinG-Dynabeads (Invitrogen) for 1.5 h at 4° C. Quantitative real-time PCR was carried out with QuantStudio™ 6 Flex Real-Time PCR Systems (Thermofisher Scientific). The amount of immunoprecipitated DNA in each sample was determined as the fraction of the input, and normalized to the IgG control. PCR Primers are listed in Supplementary Table S2.
Chromatin immunoprecipitation antibodies are listed in Supplementary […] Supplementary Methods. […] Quantitative real-time PCR was carried out with QuantStudio™ 6 Flex Real-Time PCR Systems (Thermofisher Scientific). The amount of immunoprecipitated DNA in each sample was determined as the fraction of the input, and normalized to the IgG control.

SRC-1 = assay: Biotin-EVG competition pulldown and thermal shift assays; type: binding; settings: Flag-SRC-1, biotin-EVG, increasing concentrations of EVG
Method: FIG. 7T illustrates the lysates from SF268 cells overexpressing Flag-SRC-1 were incubated with 20 μM biotin or biotin-EVG for streptavidin-beads pull-down assays.
FIG. 7U illustrates purified Flag-SRC1 protein was incubated with EVG-Biotin in the presence of increasing concentrations of EVG and further subjected to streptavidin-beads pull-down assays.
1 μg of purified recombinant protein Flag-SRC-1 was incubated with […] biotin-EVG/DMSO in the presence of increasing concentrations of Elvitegravir (20, 40, 100, 200 uM) for 30 min (RT) and was further incubated with streptavidin-agarose (20359, Thermo Fisher Scientific) for 20 min (RT). Washing beads with PBS (3×1.5 min). The precipitates were analyzed by western blot with anti-flag antibody.
Methods: Cells (SF268 cells and HEK293FT cells were transfected with expression vector of Flag-SRC-1) were harvested and lysed in lysis buffer (20 mM TrisHCl 7.5, 150 mM NaCl, 0.5% NP40, 5% glycerin, 1% proteinase Cocktail), and then incubated with 20 µM compound with biotin tag or DMSO for 40 min at room temperature. Then incubated with 100 μL streptavidin-agarose (20359, Thermo Fisher Scientific) for 30 min at RT. The beads were washed 4 times with lysis buffer ([…] 1.5 min). And the precipitates were analyzed by western blot with anti-flag antibody. […]

T1 sequence (Q15788 whole entry): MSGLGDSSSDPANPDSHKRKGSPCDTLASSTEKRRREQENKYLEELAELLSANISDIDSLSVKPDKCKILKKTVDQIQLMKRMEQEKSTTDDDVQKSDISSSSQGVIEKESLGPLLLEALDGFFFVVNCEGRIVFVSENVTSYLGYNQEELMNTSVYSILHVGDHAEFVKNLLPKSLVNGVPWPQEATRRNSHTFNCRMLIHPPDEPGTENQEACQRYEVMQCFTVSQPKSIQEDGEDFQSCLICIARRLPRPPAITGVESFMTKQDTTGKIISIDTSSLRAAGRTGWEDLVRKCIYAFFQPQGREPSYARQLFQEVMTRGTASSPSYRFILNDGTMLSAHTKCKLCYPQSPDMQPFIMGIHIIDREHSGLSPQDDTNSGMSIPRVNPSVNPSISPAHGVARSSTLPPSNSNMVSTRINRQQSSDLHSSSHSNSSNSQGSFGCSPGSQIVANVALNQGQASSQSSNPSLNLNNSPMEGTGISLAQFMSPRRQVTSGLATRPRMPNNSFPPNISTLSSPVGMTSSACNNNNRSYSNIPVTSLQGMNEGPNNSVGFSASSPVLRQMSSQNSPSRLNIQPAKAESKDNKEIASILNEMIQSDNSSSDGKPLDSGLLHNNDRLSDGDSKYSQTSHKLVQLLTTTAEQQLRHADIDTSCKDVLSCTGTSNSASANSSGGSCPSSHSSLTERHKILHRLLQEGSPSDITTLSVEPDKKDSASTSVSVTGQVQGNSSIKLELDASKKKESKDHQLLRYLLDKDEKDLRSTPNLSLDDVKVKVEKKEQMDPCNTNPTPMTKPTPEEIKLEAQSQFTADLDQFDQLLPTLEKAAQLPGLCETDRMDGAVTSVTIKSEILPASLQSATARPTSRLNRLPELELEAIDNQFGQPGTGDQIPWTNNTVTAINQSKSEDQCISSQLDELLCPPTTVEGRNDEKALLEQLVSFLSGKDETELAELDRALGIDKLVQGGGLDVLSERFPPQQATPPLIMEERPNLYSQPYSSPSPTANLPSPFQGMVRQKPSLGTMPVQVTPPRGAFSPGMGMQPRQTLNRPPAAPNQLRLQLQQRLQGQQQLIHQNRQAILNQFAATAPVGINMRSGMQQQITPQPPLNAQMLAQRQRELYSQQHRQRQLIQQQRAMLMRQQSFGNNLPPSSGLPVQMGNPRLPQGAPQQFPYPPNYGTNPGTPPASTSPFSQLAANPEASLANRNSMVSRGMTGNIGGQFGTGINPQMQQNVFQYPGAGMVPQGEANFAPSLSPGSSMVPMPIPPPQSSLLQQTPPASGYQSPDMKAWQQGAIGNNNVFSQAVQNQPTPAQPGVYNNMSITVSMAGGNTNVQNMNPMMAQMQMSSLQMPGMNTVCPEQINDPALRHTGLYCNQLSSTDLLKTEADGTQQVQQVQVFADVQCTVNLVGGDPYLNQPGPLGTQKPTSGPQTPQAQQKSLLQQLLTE

In the case of `COc1cc2c(cc1Cc1cccc(Cl)c1F)c(=O)c(C(=O)O)cn2[C@H](CO)C(C)C` [EVG, 6-[(3-chloro-2-fluorophenyl)methyl]-1-[(2S)-1-hydroxy-3-methylbutan-2-yl]-7-methoxy-4-oxoquinoline-3-carboxylic acid], the “SRC-1 condensates / SRC1 phase separation (LLPS)” value (SRC-1 condensates; H1299 cells co-transfected with YAP5SA, TEAD4-mTagBFP, mNeoGreen-SRC1, 20 μM) was “impaired; also recorded: selectively disrupted”, the “nuclear SRC-1 puncta formation” value (SRC-1 condensates; H1299 cells expressing either mNeoGreen or mScarlet labeled SRC-1, time course) was “impaired the LLPS of SRC-1 in time-dependent manner; also recorded: suppressed” and the “phosphorylation pattern in YAP” value (YAP) was “unaffected”. For the same compound, the “H3K27ac mark levels at YAP target genes” value (H3K27ac) was “reducing” and the “binding to SRC-1, competition pulldown and thermal shift” value (SRC-1) was “both direct and specific”.
